Reference: patent US12653837B2, “Use of inhaled nitric oxide and oxygen for the treatment of pulmonary hypertension” (Bellerophon Pulse Technologies LLC, priority 2017, dated 2026)

Assays:
[1] = test system: symptomatic subjects with PAH; experiment: Oxygen desaturation (drop in SpO2 from beginning to end of six-minute walk test), Phase 2 study IK-7001-PAH-201; format: in vivo, human
Excerpt: (§1) This study was a Phase 2, placebo controlled, double-blind, randomized, clinical study to determine the safety, tolerability and efficacy of pulsed iNO versus placebo as add-on therapy in symptomatic subjects with PAH (IK-7001-PAH-201; NCT01457781). The primary outcome of this study was change from baseline in pulmonary vascular resistance (PVR). Secondary outcome measure included change in 6MWD, time to first clinical worsening event (TTCW), change in WHO functional class, change in Borg Dyspnea Score (BDS) and change in patient reported outcome (PRO) scores by the SF-36 short form version 2 and the Cambridge Pulmonary Hypertension Outcome Review (CAMPHOR).
(§2) PAH subjects were administered pulsed iNO at a dose of 25 or 75 mcg/IBW kg/hr for up to 24 hours a day for up to 16 weeks, or received pulsed placebo (99.999% N2) for up to 24 hours a day for up to 16 weeks. The dose of 25 mcg/kg IBW/hr was administered from a mini-cylinder having 2,440 ppm NO and the dose of 75 mcg/kg IBW/hr was administered from a mini-cylinder having 4,880 ppm NO.
(§3) All subjects were receiving at least one approved PAH therapy and were clinically symptomatic from PAH (e.g. onset or increased dyspnea on exertion, dizziness, near-syncope, syncope, chest pain or peripheral edema).
Oxygen desaturation was measured as the drop in SpO2 level from the beginning to the end of the six-minute walk test (6MWT). Oxygen desaturation was measured at baseline and after 16 weeks of chronic treatment with iNO at a dose of 75 mcg/kg IBW/hr (iNO 75) or 25 mcg/kg IBW/hr (iNO 25) or placebo.

[2] = test system: symptomatic subjects with PAH; experiment: Exercise capacity (change in 6MWD from baseline to 16 weeks), Phase 2 study IK-7001-PAH-201; format: in vivo, human
Excerpt: as §1, §2, §3
Also shown is the change in exercise capacity, measured as the change in 6MWD from baseline to 16 weeks.

For `[N]=O` [iNO, nitric oxide], the “Change in Oxygen Desaturation (SpO2)” value ([1]; iNO 25 mcg/kg IBW/hr, pulsed, up to 24 h/day, baseline to 16 weeks (LOCF), PAH subjects) was −0.14, the “Change in Oxygen Desaturation (SpO2)” value ([1]; iNO 75 mcg/kg IBW/hr, pulsed, up to 24 h/day, baseline to 16 weeks (LOCF), all PAH subjects) was −2.19 and the “Change in Oxygen Desaturation (SpO2)” value ([1]; iNO 75 mcg/kg IBW/hr, No LTOT, baseline to 16 weeks, PAH subjects) was 0.40. For the same compound, the “Change in Oxygen Desaturation (SpO2)” value ([1]; iNO 75 mcg/kg IBW/hr, compliant >12 hrs per day, No LTOT, baseline to 16 weeks, PAH subjects) was 1.33, the “Change in Oxygen Desaturation (SpO2)” value ([1]; iNO 75 mcg/kg IBW/hr, compliant >12 hrs per day, with LTOT, baseline to 16 weeks, PAH subjects) was −3.36 and the “Change in Oxygen Desaturation (SpO2)” value ([1]; iNO 75 mcg/kg IBW/hr, with LTOT, baseline to 16 weeks, PAH subjects) was −3.00. For the same compound, the “Change in 6MWD (meters)” value ([2]; iNO 25 mcg/kg IBW/hr, pulsed, up to 24 h/day, PAH subjects) was 4.7 meters, the “Change in 6MWD (meters)” value ([2]; iNO 75 mcg/kg IBW/hr, No LTOT, PAH subjects) was −20.8 meters and the “Change in 6MWD (meters)” value ([2]; iNO 75 mcg/kg IBW/hr, compliant >12 hrs per day, No LTOT, PAH subjects) was −29.7 meters. The “Change in 6MWD (meters)” value ([2]; iNO 75 mcg/kg IBW/hr, compliant >12 hrs per day, with LTOT, PAH subjects) was 52.4 meters, the “Change in 6MWD (meters)” value ([2]; iNO 75 mcg/kg IBW/hr, pulsed, up to 24 h/day, all PAH subjects) was 22.8 meters and the “Change in 6MWD (meters)” value ([2]; iNO 75 mcg/kg IBW/hr, with LTOT, PAH subjects) was 34.9 meters.
